In ChEMBL document CHEMBL1138328, “Coumarin-based inhibitors of human NAD(P)H:quinone oxidoreductase-1. Identification, structure-activity, off-target effects and in vitro human pancreatic cancer toxicity” (J Med Chem, 2007):
Calls of active or inactive are those of the source. No cut-off for these calls is given here.

Columns and labels:
[1] = tested on: MIA PaCa-2; assay: Growth inhibition of human MIA PaCa2 cells; type: functional, cell-based
[2] = tested on: MIA PaCa-2; assay: Cytotoxicity against human MIA PaCa2 cells by MTT assay; type: functional, cell-based
[3] = tested on: MIA PaCa-2; assay: Effect on respiration rate in human MIA PaCa2 cells assessed as oxygen consumption per 10^6 cells at 100 uM; type: functional
[4] = tested on: MIA PaCa-2; assay: Induction of superoxide formation in human MIA PaCa2 cells; type: functional, cell-based
[5] = biological target: T1, NAD(P)H dehydrogenase [quinone] 1 (Homo sapiens, UniProt P15559)
T1 sequence (P15559 whole entry): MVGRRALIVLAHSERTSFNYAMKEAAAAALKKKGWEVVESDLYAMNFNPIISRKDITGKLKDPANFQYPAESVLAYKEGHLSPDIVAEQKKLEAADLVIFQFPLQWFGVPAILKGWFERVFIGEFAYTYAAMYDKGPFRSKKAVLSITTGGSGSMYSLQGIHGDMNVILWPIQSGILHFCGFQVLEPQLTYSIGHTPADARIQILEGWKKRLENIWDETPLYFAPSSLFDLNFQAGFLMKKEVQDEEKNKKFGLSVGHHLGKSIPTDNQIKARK
Description: Inhibition of human recombinant NQO1

[6] = biological target: T1, NAD(P)H dehydrogenase [quinone] 1; remark: listed apart in the source
Description: Inhibition of human recombinant NQO1 in presence of BSA

SMILES | Activity [1] | IC50 [2] [µM] | Activity [3] [nmol/min] | Activity [4] | IC50 [5] [nM] | IC50 [6] [µM]
O=c1oc2ccccc2c(O)c1C1c2ccccc2Oc2c1c(=O)oc1ccccc21 (stereo unspecified) | Dose-dependent effect | 150 | 2.5 | – | – | –
O=c1oc2ccccc2c(O)c1Cc1c(O)c2ccccc2oc1=O [DICUMAROL] | Dose-dependent effect | 75 | 7 | Active | – | –
Nc1cc(=O)oc2ccccc12 | – | – | – | – | 3250 | 13
O=c1c(C(c2ccco2)c2c(O)oc3ccccc3c2=O)c(O)oc2ccccc12 | – | – | – | – | 1300 | 5.9
COc1cc(C(c2c(O)c3ccccc3oc2=O)c2c(O)c3ccccc3oc2=O)ccc1O | – | – | – | – | 650 | 10
O=c1c(C(c2cccs2)c2c(O)oc3ccccc3c2=O)c(O)oc2ccccc12 | – | – | – | – | 550 | 10
O=C1OC2C=CC=CC2=C2Oc3c(c(=O)oc4ccccc34)C(c3c(O)c4ccccc4oc3=O)C12 (stereo unspecified) | Dose-dependent effect | 140 | 2.5 | – | 250 | 0.6
O=c1c(C(c2cnc3ccccc3c2)c2c(O)oc3ccccc3c2=O)c(O)oc2ccccc12 | – | – | – | – | 380 | 18
O=c1c(Cc2c(O)oc3cc(O)ccc3c2=O)c(O)oc2cc(O)ccc12 | Dose-dependent effect | 190 | 2.6 | – | 5 | 0.35
O=c1c(C(c2ccc3ccccc3c2)c2c(O)oc3ccccc3c2=O)c(O)oc2ccccc12 | – | – | – | – | 140 | 8.5
COc1ccc(C(c2c(O)c3ccccc3oc2=O)c2c(O)c3ccccc3oc2=O)cc1 | – | – | – | – | 220 | 8.7
